# Data: patent US12116343B2, “Inhibitors of APOL1 and methods of using same” (Vertex Pharmaceuticals Incorporated, priority 2020, dated 2024)
# Molecular target: T1, G1 APOL1 (Homo sapiens, UniProt O14791, I384M/S342G)
# T1 construct: expressed in transfected cells
# T1 sequence (O14791 28-398 S342G/I384M): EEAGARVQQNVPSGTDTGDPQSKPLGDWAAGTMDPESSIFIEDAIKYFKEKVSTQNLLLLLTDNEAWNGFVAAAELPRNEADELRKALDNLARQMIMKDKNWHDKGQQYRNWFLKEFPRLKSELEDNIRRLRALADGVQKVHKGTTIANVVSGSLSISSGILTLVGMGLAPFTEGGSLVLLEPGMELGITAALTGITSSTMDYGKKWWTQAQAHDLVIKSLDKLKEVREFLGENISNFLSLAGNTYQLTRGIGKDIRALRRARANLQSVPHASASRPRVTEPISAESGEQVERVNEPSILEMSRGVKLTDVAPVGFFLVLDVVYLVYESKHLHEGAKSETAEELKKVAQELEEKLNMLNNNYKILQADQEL
# Assay: Acute APOL1 Thallium Assay with inducible stable clones of HEK 293 cells
# Assay type: cell-based
# Settings: HEK 293 T-Rex cells expressing G1 APOL1; read-out: Thallium Assay (IC50)
# Excerpt: Acute APOL1 Thallium Assay with Inducible Stable Clones of HEK 293 Cells
# Apolipoprotein L1 (APOL1) proteins form potassium-permeable cation pores in the plasma membrane. APOL1 risk variants (G1 and G2) induce greater potassium flux than G0 in HEK293 cells. This assay exploits the permeability of thallium (Tl+) through ligand-gated potassium channels. The dye produces a bright fluorescent signal upon binding to Tl+ conducted through potassium channels. The intensity of the Tl+ signal is proportional to the number of potassium channels in the open state. Therefore, it provides a functional indication of the potassium channel activities. During the initial dye-loading step, the Tl+ indicator dye as an acetoxymethyl (AM) ester enters the cells through passive diffusion. Cytoplasm esterases cleave the AM ester and relieve its active thallium-sensitive form. The cells are then stimulated with Tl+. The increase of fluorescence in the assay represents the influx of Tl+ into the cell specifically through the potassium channel (i.e. through APOL1 pores), providing a functional measurement of potassium channel/pore activity. The Thallium assay is conducted with cells expressing G1 APOL1.
# APOL1 Cell Line (HEK T-Rex Stable Inducible Cell Line) • HEK T-Rex System • Tetracycline (Tet) inducible mammalian expression system. • Stably express the Tet repressor to regulate transcription. • Expression under the full-length CMV promoter. • APOL1 stable inducible cell line Clone used: G1 DC3.25
# Tissue Culture Media • Cell Culture Medium • DMEM+10% FBS+P/S+5 μg/mL blasticidin+1 μg/mL puromycin. • 500 mL DMEM+55 mL FBS+5 mL P/S+280 μL blasticidin S HCl (10 mg/mL)+56 μL puromycin (10 mg/mL). • Cell Assay Medium • DMEM with 2% FBS+pen strep.
# Instruments and Equipment • Nuaire cell culture hood, Cat. No. 540-600 • 37° C./5% CO2 incubator link to robotic arm, Liconic: STX110 • Molecular Devices FLIPR^Tetra High throughput cellular screening system, Cat. No. FT0324, Molecular Devices • ThermoFisher MultiDrop 384, Cat. No. 5840300 • Biotek Microfill, Cat. No. ASF1000A-4145 • BioRad TC10 cell counter, Cat. No. 145-0010 Assay Procedures
# Cells Scaled Up from Frozen Vials • APOL1 G1 3.25 (HEK293 T-Rex) frozen vials: 5 million cells per vial • Step 1, Day 1: Defrost frozen vial into T-225. • Step 2, Day 5: (when 85% confluent): Split one T-225 at 3×10^6 cells per flask. • Step 3, Day 8: Splits cells to set up for the assay plates as described below.
# T-Rex APOL1 HEK cells are split twice per week to keep the confluence state below 85% of the culture flask surface area. Cells can be kept until passage 25. • Cell Culture Medium • DMEM high glucose+10% FBS, +P/S, +5 μg/mL blasticidin, +1 μg/mL puromycin. • 500 mL DMEM, +55 mL FBS, +5 mL P/S, +280 μL blasicidin 10 mg/mL, +56 μL Puromycin 10 mg/mL. • Assay Media • Opti-MEM reduced serum medium from Invitrogen.
# Preparation of Cell Assay Plates • Culture medium is removed from the x cm^2 T-flask by aspiration. • The cell monolayer is rinsed with PBS 1× at room temperature. PBS is removed by aspiration. • Cells are trypsinized using Trypsin. • The flasks are incubated at room temperature for 2-3 minutes. • Complete DMEM medium is then added. Cell suspension is then transferred to a 50 mL Falcon polypropylene tube. • Cells are then counted using a Biorad TC10 cell counter and the required amount of cells are centrifuged at 1200 RPM for 5 minutes. Required amount is 1.3×10^6 cells/mL APOL1 T-Rex HEK cells. • The pellet is suspended in the assay medium. • Using the MultiDrop, add 20 μL to each well (corresponds to 26000 cells total per well) of a 384-well black, transparent, flat bottom Poly-D coated plate. • Tetracycline as prepared in the following section is added to the cells before plating to induce APOL1 expression. • Plates are left at room temperature for 20 to 30 minutes before incubation at 37° C. and 5% CO2. […]
row,SMILES,IC50 [µM]
1,CC1(C(=O)NC2(CO)CC2)CC(c2c(-c3ccc(F)cc3)[nH]c3c(F)cc(F)cc23)C1 (mixture of isomers) [Compound 281],< 0.25
2,CC(C)C(CO)NC(=O)[C@H]1C[C@@H](c2c(-c3ccc(F)cc3)[nH]c3c(F)cc(F)cc32)C1 (stereo partly shown) [Compound 254],> 1
3,O=C(NCCn1cncn1)[C@H]1C[C@@H](c2c(-c3ccc(F)cc3)[nH]c3c(F)cc(F)cc32)C1 [Compound 264],> 1
4,O=C(N[C@@H]1CCOC1)[C@H]1C[C@@H](c2c(-c3ccc(F)cc3)[nH]c3c(F)cc(F)cc32)C1 [Compound 269],> 1
5,O=C(NC(CO)(CO)CO)[C@H]1C[C@@H](c2c(-c3ccc(F)cc3)[nH]c3c(F)cc(F)cc32)C1 [Compound 273],0.25 to 1
6,O=C([C@H]1C[C@@H](c2c(-c3ccc(F)cc3)[nH]c3c(F)cc(F)cc32)C1)N1C[C@@H](O)[C@H](O)C1 [Compound 274],> 1
7,O=C1NCCCC1NC(=O)[C@H]1C[C@@H](c2c(-c3ccc(F)cc3)[nH]c3c(F)cc(F)cc32)C1 (stereo partly shown) [Compound 249],> 1
8,O=C1CN(C(=O)[C@H]2C[C@@H](c3c(-c4ccc(F)cc4)[nH]c4c(F)cc(F)cc43)C2)CCN1 [Compound 275],> 1
9,C[C@@H](O)CNC(=O)[C@H]1C[C@@H](c2c(-c3ccc(F)cc3)[nH]c3c(F)cc(F)cc32)C1 [Compound 258],> 1
10,O=C1NCC[C@H]1NC(=O)[C@H]1C[C@@H](c2c(-c3ccc(F)cc3)[nH]c3c(F)cc(F)cc32)C1 [Compound 236],> 1

# Same assay, conditions: Table 24, Compounds 287 to 465; read-out: Thallium Assay (IC50)
row,SMILES,IC50 [µM]
1,O=C(NC1(CO)CC(F)(F)C1)C1CC(Cc2c(-c3ccc(F)cc3)[nH]c3c(F)cc(F)cc23)C1 (stereo not shown) [Compound 309],> 1
2,CC1(C)CC(NC(=O)NC[C@H]2C[C@H](c3c(-c4ccc(F)cc4)[nH]c4c(F)cc(F)cc43)C2)C(=O)O1 (stereo partly shown) [Compound 403],> 1
3,O=C(NCC1(O)CCCC1)C1CC(Cc2c(-c3ccc(F)cc3)[nH]c3c(F)cc(F)cc23)C1 (stereo not shown) [Compound 315],> 1
4,O=C(CC1CC(c2c(-c3ccc(F)cc3)[nH]c3c(F)cc(F)cc23)C1)NCCO (stereo not shown) [Compound 459],> 1
5,CC(NC(=O)C1CC(Cc2c(-c3ccc(F)cc3)[nH]c3c(F)cc(F)cc23)C1)c1ccn(C)n1 (mixture of isomers) [Compound 312],> 1
6,O=C(NC[C@H]1C[C@H](c2c(-c3ccc(F)cc3)[nH]c3c(F)cc(F)cc32)C1)N[C@@H](CO)C(F)(F)F [Compound 413],> 1
7,O=C1CC(CNC(=O)C2CC(Cc3c(-c4ccc(F)cc4)[nH]c4c(F)cc(F)cc34)C2)CN1 (stereo not shown) [Compound 336],> 1
8,Cc1cnc(CNC(=O)O[C@H]2C[C@H](c3c(-c4ccc(F)cc4)[nH]c4c(F)cc(F)cc43)C2)o1 [Compound 374],> 1
9,CC(C)(NCC1CC(c2c(-c3ccc(F)cc3)[nH]c3c(F)cc(F)cc23)C1)C(N)=O (stereo not shown) [Compound 440],> 1
10,CC(C)[C@@H](CO)NC(=O)O[C@H]1C[C@H](c2c(-c3ccc(F)cc3)[nH]c3c(F)cc(F)cc32)C1 [Compound 377],> 1
11,"CCNC(=O)N1CC(c2c(-c3ccc(F)cc3)[nH]c3c(F)cc(F)cc23)C1 [Compound 464, 3-[5,7-difluoro-2-(4-fluorophenyl)-1H-indol-3-yl]-N-ethyl-azetidine-1-carboxamide]",0.25 to 1
12,O=C(NC[C@H]1C[C@H](c2c(-c3ccc(F)cc3)[nH]c3c(F)cc(F)cc32)C1)NC1(CO)CCOC1 (stereo partly shown) [Compound 425],> 1
13,C[C@@H](O)[C@@H](CO)NC(=O)O[C@H]1C[C@H](c2c(-c3ccc(F)cc3)[nH]c3c(F)cc(F)cc32)C1 [Compound 372],> 1
14,O=C(NC1(CCO)CC1)C1CC(Cc2c(-c3ccc(F)cc3)[nH]c3c(F)cc(F)cc23)C1 (stereo not shown) [Compound 311],> 1
15,CC1(CNC(=O)C2CC(Cc3c(-c4ccc(F)cc4)[nH]c4c(F)cc(F)cc34)C2)CCOC1 (mixture of isomers) [Compound 332],> 1
16,O=C(NC[C@H]1C[C@H](c2c(-c3ccc(F)cc3)[nH]c3c(F)cc(F)cc32)C1)NC1(CO)CC(F)(F)C1 [Compound 400],> 1
17,O=C(CC1CC(c2c(-c3ccc(F)cc3)[nH]c3c(F)cc(F)cc23)C1)N[C@H](CO)C(F)(F)F (stereo partly shown) [Compound 461],> 1

row,SMILES,IC50 [µM]
1,CN1CCN(C(=O)CNCC2CC(c3c(-c4ccc(F)cc4)[nH]c4c(F)cc(F)cc34)C2)CC1 (stereo not shown) [Compound 444],> 1
2,C[C@H](NCC1CC(c2c(-c3ccc(F)cc3)[nH]c3c(F)cc(F)cc23)C1)C(=O)N(C)C (stereo partly shown) [Compound 434],0.25 to 1
3,COC1(CNC(=O)C2CC(Cc3c(-c4ccc(F)cc4)[nH]c4c(F)cc(F)cc34)C2)CCOC1 (stereo not shown) [Compound 343],> 1
4,NC(=O)C(CO)NCC1CC(c2c(-c3ccc(F)cc3)[nH]c3c(F)cc(F)cc23)C1 (stereo not shown) [Compound 437],0.25 to 1
5,O=C(NCc1ncc[nH]1)C1CC(Cc2c(-c3ccc(F)cc3)[nH]c3c(F)cc(F)cc23)C1 (stereo not shown) [Compound 342],> 1
6,C[C@H](O)[C@H](CO)NC(=O)O[C@H]1C[C@H](c2c(-c3ccc(F)cc3)[nH]c3c(F)cc(F)cc32)C1 [Compound 366],> 1
7,CC1(O)CC(NC(=O)C2CC(Cc3c(-c4ccc(F)cc4)[nH]c4c(F)cc(F)cc34)C2)C1 (stereo not shown) [Compound 325],> 1
8,CC(C)NC(=O)CNC[C@H]1C[C@H](c2c(-c3ccc(F)cc3)[nH]c3c(F)cc(F)cc32)C1 [Compound 451],> 1
9,Cc1cc(CNC(=O)O[C@H]2C[C@H](c3c(-c4ccc(F)cc4)[nH]c4c(F)cc(F)cc43)C2)on1 [Compound 385],> 1
10,O=C(NCC(O)CO)O[C@H]1C[C@H](c2c(-c3ccc(F)cc3)[nH]c3c(F)cc(F)cc32)C1 (stereo partly shown) [Compound 367],> 1
11,CC1(NC(=O)NC[C@H]2C[C@H](c3c(-c4ccc(F)cc4)[nH]c4c(F)cc(F)cc43)C2)CCNC1=O (mixture of isomers) [Compound 426],> 1
12,C[C@@H](CO)NC(=O)NC[C@H]1C[C@H](c2c(-c3ccc(F)cc3)[nH]c3c(F)cc(F)cc32)C1 [Compound 414],> 1
13,O=C(NCC1(CO)COC1)NC[C@H]1C[C@H](c2c(-c3ccc(F)cc3)[nH]c3c(F)cc(F)cc32)C1 [Compound 396],> 1
14,CC[C@H](CO)NC(=O)NC[C@H]1C[C@H](c2c(-c3ccc(F)cc3)[nH]c3c(F)cc(F)cc32)C1 [Compound 418],> 1
15,O=C(NC[C@H]1CC[C@@H](CO)O1)NC[C@H]1C[C@H](c2c(-c3ccc(F)cc3)[nH]c3c(F)cc(F)cc32)C1 [Compound 422],> 1
16,C[C@H](CO)NC(=O)O[C@H]1C[C@H](c2c(-c3ccc(F)cc3)[nH]c3c(F)cc(F)cc32)C1 [Compound 354],0.25 to 1
